These results are taken from patent publication US6350410B1, “Method and composition for inhibiting biological fouling in an irrigation system” (CH20 Incorporated, priority 1995, dated 2002).

This assay concerns pond water supporting algal and protozoan life, inoculated with bacterium escherichia coli. Nature of the assay: Plate count test on pond water sample inoculated with escherichia coli. It is filed as cell-based. The note with it: for population (plate count): after five days, untreated sample 100 organisms per milliliter. As to the method: A sample of pond water was obtained. […] The pond water was inoculated with a large population of bacterium escherichia coli. A plate count test was run on the pond water sample to determine the population. […] Dilution was performed with pond water to yield a population that would register on a plate count test. One liter of the sample was removed and left untreated.
A second one liter portion was taken from the pond water sample. A composition of about 2% active zinc sulfate was mixed with the water sample to yield active zinc at about 0.1 ppm.
A third one liter portion was taken from the pond water sample. A composition of about 2% active zinc sulfate was mixed with the water sample to yield active zinc at about 10.0 ppm.
A fourth one liter portion was taken from the pond water sample. A zinc chelated product was prepared containing about 2% active zinc sulfate which was chelated on a 1:1 molar ratio with 1-hydroxyethane 1,1-diphosphonic acid (HEDPA). The chelated zinc product was added to the sample to yield chelated zinc at about 0.1 ppm.
A fifth one liter portion was taken from the pond water sample. A zinc chelated product was prepared containing about 2% active zinc sulfate which was chelated on a 1:1 molar ratio with HEDPA. The chelated zinc product was added to the sample to yield chelated zinc at about 10.0 ppm.

As to `O=S(=O)([O-])[O-].[Zn+2]` [active zinc, zinc sulfate], the “population (plate count)” value runs as follows: (about 0.1 ppm in one liter pond water sample) 1 organism per milliliter; (about 10.0 ppm in one liter pond water sample) 6 organisms per milliliter. Besides, the “treatment of biological fouling (in words)” value (about 10.0 ppm, compared to the untreated sample) is “effective treatment”.
